In one test the target is T1, Strep-hIntL-1 (Homo sapiens, UniProt Q8WWA0).
T1 construct: made in house; host or cells: HEK 293T (transient transfection)
Description: Strep-hIntL-1 binding to S. pneumoniae serotypes. The following applies: detected with anti-Strep-tag:Oyster 642 nm antibody.

The target in test [1] is T2, hIntL-1 (Homo sapiens, UniProt Q8WWA0). As to the kind of experiment: hIntL-1 carbohydrate binding ELISA-like assay (immobilized biotinylated carbohydrates). More on the design: made in house; host or cells: HEK 293T (transient transfection, suspension). The following applies: for hIntL-1 binding to immobilized carbohydrate in ELISA: immobilized carbohydrate-biotin ligand. The method, then:
hIntL-1 Carbohydrate Binding ELISA-like Assay. To fabricate carbohydrate-displaying surfaces, 0.5 μg of streptavidin (Prozyme, cat. no. SA20) was adsorbed onto a Maxisorp (Nunc) flat bottom 96 well plate in PBS. Wells were washed with PBS and then coated with 5 μM of carbohydrate-biotin ligand in PBS for 1 hour at 22° C. Wells were blocked with bovine serum albumin (BSA) in ELISA buffer (20 mM HEPES (7.4) 150 mM NaCl, 10 mM CaCl2, and 0.1% tween-20). Samples containing hIntL-1 were prepared by serial dilution into ELISA buffer+0.1% BSA and added to wells for 2 hours at 22° C. Wells were washed four times with ELISA buffer. Bound hIntL-1 was detected using 0.75 μg/mL of a sheep IgG hIntL-1 antibody (R&D Systems, cat. no. AF4254) in ELISA buffer+0.1% BSA for 2 hours at 22° C. Wells were washed with ELISA buffer. A donkey anti-sheep IgG horseradish peroxidase (HRP) conjugate (Jackson ImmunoResearch Laboratories) was added at a 1:5,000 dilution in ELISA buffer+0.1% BSA for 1 hour at 22° C. Wells were washed and hIntL-1 was detected colorimetrically with addition of 1-Step Ultra TMB-ELISA (Pierce). Once sufficient signal was achieved (typically <2 min.), the reaction was quenched with addition of equal volume 2 M H2SO4. Plates were read at 450 nm on an EL×800 plate reader (Bio-Tek). […] Data were analyzed on Prism6 (GraphPad). Data were fit to the one site-specific binding equation.

In the next test the target is Strep-mIntL-1 (Mus musculus, UniProt O88310). The following applies: SPR, referenced to biotin channel.
Strep-mIntL-1, sequence (O88310 19-298): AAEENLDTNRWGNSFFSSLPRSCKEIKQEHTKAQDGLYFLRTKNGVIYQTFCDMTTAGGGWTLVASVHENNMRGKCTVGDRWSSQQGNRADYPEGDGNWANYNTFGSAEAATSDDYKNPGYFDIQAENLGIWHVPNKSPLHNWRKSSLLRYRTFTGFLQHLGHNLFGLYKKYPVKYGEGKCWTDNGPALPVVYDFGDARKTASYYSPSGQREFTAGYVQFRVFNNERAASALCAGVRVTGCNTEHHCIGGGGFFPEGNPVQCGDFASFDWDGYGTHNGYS
Test [2] has as its target T2, hIntL-1. Description: hIntL-1 surface plasmon resonance on immobilized carbohydrates. It counts as binding. Set-up: made in house; host or cells: HEK 293T (transient transfection, suspension). The following applies: concentrations up to 6-fold higher than the β-Galf KD. The method, then: hIntL-1 Surface Plasmon Resonance (SPR). All hIntL-1 SPR was performed on a ProteOn XPR36 (Bio-Rad) at the University of Wisconsin-Madison Department of Biochemistry Biophysics Instrumentation Facility (BIF). To measure hIntL-1 binding, ProteOn NLC sensor chips (Bio-Rad) (NeutrAvidin coated chips) were used to capture carbohydrate-biotin ligand. All experiments presented here were conducted at surface saturated levels of ligand, ˜200 RU. In all experiments, captured biotin served as a control. Samples containing purified hIntL-1 were prepared by serial dilution into hIntL-1 SPR running buffer (20 mM HEPES (7.4) 150 mM NaCl, 1 mM CaCl2, and 0.005% tween-20). Surfaces were regenerated with short injections of 10 mM HCl. All data was interspot corrected and processed using the Bio-Rad ProteOn software package.
For orientation: Surface plasmon resonance follows binding to a sensor surface in real time, without labels.

Test [3] has as its target T2, hIntL-1. The following applies: reported by Tsuji et al., 2001; read-out: apparent KD / apparent affinity for hIntL-1; cited from earlier work.
In test [4] the target is T2, hIntL-1. As to the kind of experiment: hIntL-1 on CFG mammalian glycan array v5.1. The format is binding. As to conditions: hIntL-1 50 and 200 μg/ml. More on the design: made in house; host or cells: HEK 293T (transient transfection, suspension).
Test [5] has as its system UDP-galactopyranose mutase (UGM). As to conditions: UGM from the species listed; cited from earlier work.

Like-named read-outs stand apart in the source and are kept apart here.

T2 sequence (Q8WWA0 19-313): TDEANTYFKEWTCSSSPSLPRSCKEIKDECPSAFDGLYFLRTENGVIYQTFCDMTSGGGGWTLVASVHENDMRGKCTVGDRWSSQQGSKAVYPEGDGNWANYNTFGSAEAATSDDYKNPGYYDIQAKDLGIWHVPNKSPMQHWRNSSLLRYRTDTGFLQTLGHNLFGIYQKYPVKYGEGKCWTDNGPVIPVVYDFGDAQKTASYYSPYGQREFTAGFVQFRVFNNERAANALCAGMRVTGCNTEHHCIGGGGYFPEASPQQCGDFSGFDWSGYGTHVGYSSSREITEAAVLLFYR
T1 sequence (Q8WWA0 19-313): as above

Take `O=C(O)CN(CCN(CC(=O)O)CC(=O)O)CC(=O)O` [EDTA]: at Strep-hIntL-1, the “effect of additive on hIntL-1 binding to S. pneumoniae” value is “abrogate binding”. Also, the “effect of additive on hIntL-1 binding to β-Galf” value at hIntL-1 [1] (hIntL-1 conditioned HEK culture media, 25 mM EDTA) is on record as “completely abolished binding”. For the same molecule, on Strep-mIntL-1, the “effect of additive on mIntL-1 carbohydrate binding” value is recorded as “prevents carbohydrate binding”.

With `O=C(CCCCC1SCC2NC(=O)NC21)NCCOCCOCCOCCOCc1cn(CCCCCCCCCC=CCOC2OC(C(O)CO)C(O)C2O)nn1` (stereo not drawn), the “hIntL-1 binding to immobilized carbohydrate in SPR” value on hIntL-1 [2] is “robust binding”. The Kd on hIntL-1 [1] (disulfide-linked trimer, immobilized biotinylated carbohydrate, read-out: apparent avidity (apparent Kd) of trimeric hIntL-1 for immobilized ligand) turned out to be 85 ± 14 nM.

As to `CC(=O)N[C@H]1C(O)O[C@H](CO)[C@@H](O[C@@H]2O[C@@H]([C@H](O)CO)[C@H](O)[C@H]2O)[C@@H]1O` (stereo partly drawn) [2-acetamido-2-deoxy-4-O-beta-D-galactofuranosyl-D-glucopyranose], the Kd at hIntL-1 [3] was 9 mM.

`CC(=O)N[C@H]1[C@H](OC[C@H]2OC(O)[C@H](NC(C)=O)[C@@H](O)[C@H]2O)O[C@H](CO)[C@H](O)[C@@H]1O` (stereo partly drawn) [GalNAcβ1-6GalNAc]: on hIntL-1 [4], the “hIntL-1 binding signal on CFG mammalian glycan array” value was “highest signal”.

In the case of `OC[C@H]1O[C@@H](O)[C@H](O)[C@@H](O)[C@H]1O` [β-Galp, β-galactopyranose], the “hIntL-1 binding to immobilized carbohydrate in SPR” value on hIntL-1 [2] was “small response”.

`OCC(O)CO` [glycerol]: the “effect of additive on hIntL-1 binding to S. pneumoniae” value at Strep-hIntL-1 is listed as “abrogate binding”.

Consider `O=C[C@H](O)[C@H](O)[C@H](O)CO` [D-ribose], for which the Kd on hIntL-1 [3] was less than 5 mM.

On to `Cc1c(C(=O)c2ccc(Cl)cc2)c(O)nn1-c1ccc(Cl)cc1` [4-chlorophenyl)-[1-(4-chlorophenyl)-3-hydroxy-5-methyl-1H-pyrazol-4-yl]-methanone], for which the “inhibition of UGM” value in test [5] is on record as “inhibits UGM”.

On to `CC(=O)N[C@H]1[C@H]([C@H](O)[C@H](O)CO)OC(O)(C(=O)O)C[C@@H]1O` (stereo partly drawn) [Neu5Ac, N-acetyl-neuraminic acid], for which the “hIntL-1 binding signal on CFG mammalian glycan array” value at hIntL-1 [4] is reported as “lack of affinity”. Besides, the “hIntL-1 binding to immobilized carbohydrate in ELISA” value on hIntL-1 [1] is “lack of affinity”; on hIntL-1 [1] (listed as α-Neu5Ac) it was “does not bind”.

Turning to `O=C(O)C(Cc1ccc(I)cc1)Nc1nc(-c2ccc(Cl)c(Cl)c2)cs1` (stereo not drawn) [3-(4-iodophenyl)-2-[4-(3,4-dichlorophenyl)-thiazol-2-ylamino]-propionic acid], in test [5], the “inhibition of UGM” value was “active against UGM”.

Source of the values: patent US10082506B2 (Wisconsin Alumni Research Foundation, priority 2014, dated 2018).
